Drawing on patent US5547965A, “Use of substituted amines for the treatment of brain function disorders” (Bayer Aktiengesellschaft, priority 1994, dated 1996), this text covers pI30 and ED50 for 16 compounds.

In one test the target is Nicotine receptor. Description: [3H]-cytisine displacement in rat brain membrane preparation. The format is binding. The conditions noted are these: negative common logarithm of the concentration giving 50% displacement of specifically bound [3H]-cytisine; rat brain homogenate, 22° C., 60 min. On the procedure:
The effect on nicotinergic receptors of the central nervous system is determined by a generally customary standard method for receptor binding studies (E. C. Hulme, Editor, Receptor-Ligand Interactions, Oxford University Press, 1992, pp 1-458). The binding was measured here by displacement of [^3 H]-cytisine by the active compounds in the rat brain membrane preparation.
Rats were sacrificed by decapitation and the entire brain was then removed immediately and processed. All following steps were carried out with cooling to 4° C. The brain was homogenized in sucrose solution (110 g of sucrose/l; 20 ml of solution per 1 g of brain mass) with the aid of a mixer. Coarse constituents were removed by centrifugation of the homogenate for 10 min at 1200 g and subsequent filtration through 5 layers of muslin. The suspension which remained (called homogenate in the following) was frozen and stored at -20° C. until use.
Buffer A for the test batch: 100 mM K2 HPO4 /KH2 PO4, pH 7.4, containing 1 g/ of bovine serum albumin.
For the determination of the displacement of [^3 H]-cytisine by the active compounds the following batch (1 ml total volume) was mixed together: 250 μl of thawed homogenate, 600 μl of buffer, 100 μl of active compound solution in buffer A (containing a concentration series in dilution steps with a factor of 10 between a maximum of 10^-2 M and a minimum of 10^-10 M of active compound, and 2 μl of methanol, from a concentrated stock solution of the active compounds), 50 μl of (^3 H)-cytisine solution in buffer A (containing 1.48 pmol of (^3 H)-cytisine, corresponding to 1.67 KBq, and 5 μl of ethanol, from a concentrated stock solution). In controls which contained no homogenate or no active compound, the missing volume was replaced by buffer A.
The batches were incubated at 22° C. in a shaking water bath for 60 min. To end incubation of the batches, 3 ml of ice-cold buffer A was added in each case and the whole solution was rapidly filtered through GF/C glass fibre filters. The filters were premoistened with a 1% strength solution of Prosil in buffer A. The filters were also washed twice with 3 ml of ice-cold buffer A each time. The filters were then removed and the radioactivity bound to the filters was determined in a liquid scintillation apparatus after addition of 10 ml of suitable scintillation cocktail.
All values were determined in duplicate and averaged. The concentration of active compound which leads to a 50% displacement of the specifically bound [^3 H]-cytisine was calculated from the concentration series by a logit transformation or by the 4-parameter logistic model (T. Chard; An Introduction to Radioimmunoassay and Related Techniques; Elsevier, Amsterdam, 1990; pp 613-171; statistical assessment by computer). The negative common logarithm of this concentration is called the pI50 in the following.

The next test concerns rats. Description: rat forced swimming test. It is filed as in vivo. The conditions noted are these: po, 5 min, period of immobility over 5 minutes, administered between the two swimming tests. The text has this:
The activity of the substituted amines described in the treatment and prevention of affective disorders is confirmed with the aid of the "rat forced swimming test". This behavioural model was described for the first time by R. D. Porsolt et al. (Nature 266; 730, 1977) and today is a generally recognized in-vivo screening model for the discovery of new antidepressants. It is based on the observation that rats in a hopeless situation remain in an immobile position ("behavioural despair"). In a preliminary test, young adult rats (3-4 months old) are placed individually for 20 minutes in glass cylinders (height 40 cm, diameter 20 cm) which are filled with water to a height of 15 cm. 24 hours after this preliminary test, the animals are again transferred to the cylinders and the period of immobility is measured over a space of time of 5 minutes.
The substituted amines described are administered in the time interval between the two swimming tests. Controls receive the vehicle.

Consider `CCCC(c1ccc(F)cc1)N1CNC(NCc2ccc(Cl)nc2)=C([N+](=O)[O-])C1` (stereo not shown) [Example 1], for which the pI30 at Nicotine receptor was determined as 6.6. The same measure, in the same setting: the result for `O=[N+]([O-])C=C1NCCN1Cc1ccc(Cl)c(F)c1` [Example 2] reads 5.3. In the case of `CC(=O)NCCN1CC([N+](=O)[O-])=C2N(Cc3ccc(Cl)nc3)CCN2C1` [Example 3], the ED50 in the test on rats turned out to be 4.1 mg/kg. The pI30 on Nicotine receptor worked out at 6.5. On Nicotine receptor, `COc1cccc(CN2CCN(Cc3ccc(Cl)nc3)C2=N[N+](=O)[O-])c1` [Example 4] yielded a pI30 of 5.1.

`CC(=NC#N)N(C)Cc1ccc(Cl)nc1` [Example 5] had a pI30 on Nicotine receptor of 6.2.

The compound `NC(=N[N+](=O)[O-])N1CCN(Cc2ccc(Cl)nc2)C1` [Example 6] came in with a pI30 on Nicotine receptor of 4.8. `O=[N+]([O-])C=C1NCCN1Cc1cccnc1` [Example 7] registered a pI30 at Nicotine receptor of 5.9. The same measure, in the same setting: the result for `O=[N+]([O-])C=C1NCCN1Cc1ccncc1` [Example 8] reads 4.6. `Cc1ccc(CN2CCNC2=C[N+](=O)[O-])cn1` [Example 9] showed a pI30 at Nicotine receptor of 6.4. `O=[N+]([O-])C=C1NCCN1Cc1cnc(Cl)s1` [Example 10] had an ED50 with rats of 1.5 mg/kg. Further, the pI30 on Nicotine receptor was 6.2. Consider `N#CC=C1NCCN1Cc1ccc(Cl)nc1` [Example 11], for which, on Nicotine receptor, the pI30 is listed as 5.8. On to `O=[N+]([O-])N=C1NCCN1Cc1cccnc1` [Example 12], for which the ED50 in the test with rats turned out to be 2.5 mg/kg. The compound also displayed a pI30 on Nicotine receptor of 5.7.

Consider `N#CC=C1CCCN1Cc1ccc(Cl)nc1` [Example 13], for which, at Nicotine receptor, the pI30 worked out at 6.6. At Nicotine receptor, `O=[N+]([O-])C=C1OCCN1Cc1ccc(Cl)nc1` [Example 14] showed a pI30 of 6.4. At Nicotine receptor, `CN1CN(C)C(=N[N+](=O)[O-])N(Cc2ccc(Cl)nc2)C1` [Example 15] registered a pI30 of 5.2.

Regarding `O=[N+]([O-])C=C1NCCN1c1ccc(Cl)nc1` [Example 16], the pI30 at Nicotine receptor was 4.6.
